According to ChEMBL document CHEMBL1151221, “Three new sesquiterpenes from Croton arboreous” (2004):

test system: Mus musculus; assay: Antiinflammatory activity against mouse assessed as inhibition TPA-induced ear edema at 0.5 mg/kg; type: functional; parameters: scale not given: the % may be the effect or the level left

In order of rising Activity:
1. CC1=CC[C@@H](O)[C@]2(C)CC[C@H](C(C)C)[C@H](O)[C@@H]12  28%
2. C=C1CC[C@@H](O)[C@]2(C)CC[C@@H](C(C)C)[C@@H](O)[C@@H]12  29.9%
3. C=C1CC[C@@H]2[C@H]([C@H]3[C@H]1CC[C@]3(C)O)C2(C)C [SPATHULENOL]  31.5%
